Columns and labels:
[1] = in vivo, iv
[2] = tested on: wound healing; conditions: cited from earlier work
[3] = tested on: panel of pathogens; conditions: cited from earlier work
[4] = cited from earlier work
[5] = tested on: S. aureus, P. aeruginosa, C. albicans, A. brasiliensis; assay: Preservative efficacy in TS6 oil-in-water emulsion vaccine, overall verdict; type: cell-based; conditions: 100 μg/ml alone; oily vaccine environment; previous experiment
Method: (§1) For each concentration of polyamide polymer, dilution neutralization was carried out by inoculating 10 mL of test product with 100 μL of each test strain. Countings were performed at Do, 6 h (bacteria only), 24 h (bacteria only), D7, D14 and D28. For each counting, 1 mL of the sample was neutralized in 9 mL of neutralizing solution (10 minutes), for S. aureus, a second 1:10 dilution in the same solution. Then 1 mL of the mixture was transferred in Petri dishes and covered with 15 mL of agar medium (Trypcase Soy Agar for bacteria and Sabouraud Dextrosed Agar for yeasts and molds). The countings were achieved after 24-48 hours incubation at 32.5° C.±2.5° C. for bacteria, and 48-72 hours at 22.5° C.[…] for yeasts and molds. The test micro-organisms included Staphylococcus aureus, Pseudomonas aeruginosa, Candida albicans and Aspergillus brasiliensis. Finally, the neutralization solution contained: Tween 80 (10%), lecithin (2%), saponin (2%), sodium thiosulfate (0.5%) and buffered solution chloride. The saponin was from the bark of Quillaja saponaria.
For each concentration of preservative (or preservative combination), dilution neutralization and other testing was carried out as disclosed in Example 1. The “TS6” formulation is an oil-in-water emulsion, described in U.S. Pat. No. 7,371,395 B2 (to Merial, Inc.; see especially Example 1). […]

[6] = tested on: Staphylococcus aureus; assay: Antimicrobial preservative efficacy test (dilution neutralization), preservative as WFI solution; type: cell-based
Excerpt: (§2) Preservatives are commonly used in multi-dose formulations, including animal vaccines, to prevent bacterial or fungal growth in field conditions and are employed to minimize contamination of the formulations during repeated (non-sterile) punctures into the vial. Preservatives must pass antimicrobial effectiveness testing (AET), as described in the US pharmacopeia. As disclosed herein, Applicants performed the antimicrobial tests according to United States Pharmacopeia (USP), British Pharmacopeia (BP), and European Pharmocopeia (EP). Four test organisms were used: Candida albicans, Pseudomonas aeruginosa, Staphylococcus aureus, and A. brasiliensis. And while thimerosal and formol continue to play an important role in veterinary vaccines, European authorities encourage the development of vaccines that are free from those compounds.
as §1
(§3) For each concentration of octenidine, dilution neutralization was carried out as disclosed in Example 1.

[7] = tested on: Aspergillus brasiliensis; assay: as above; type: cell-based
Excerpt: as §2, §1, §3

[8] = tested on: Candida albicans; assay: as above; type: cell-based
Excerpt: as §2, §1, §3

[9] = tested on: Pseudomonas aeruginosa; assay: as above; type: cell-based
Excerpt: as §2, §1, §3

[10] = Solubility in buffer; type: physicochemical
Method: In some embodiments, buffered solutions containing relatively lower amounts of salts, particularly including phosphate salts, are added to the immunogenic composition, or other preserved multi-dose formulation, to improve the solubility of the octenidine. This is based on Applicants' unexpected discovery that octenidine is less soluble in routinely used phosphate buffered saline (PBS). […] As such, in some embodiments, multi-dose formulations including octenidine contain less phosphate than standard PBS. Accordingly, in some embodiments, the buffer may contain for 100 L about 5 g of NaH2PO4 and about 200 g of Sodium bicarbonate (instead of standard PBS, which contains about a 20:1 ratio of Na2HPO4 to KH2PO4).

[11] = tested on: Pseudomonas aeruginosa; conditions: cited from earlier work
[12] = tested on: Aspergillus niger; conditions: cited from earlier work
[13] = tested on: Candida albicans; conditions: cited from earlier work
[14] = tested on: Staphylococcus aureus; conditions: cited from earlier work
[15] = tested on: E. coli; conditions: cited from earlier work

4,4′-trimethylene dipiperidine bispropanoic acid-co-1,3-diamino propane
maximum tolerated dose [1]: ~40 mg/kg

CCCCCCCCN=c1ccn(CCCCCCCCCCn2ccc(=NCCCCCCCC)cc2)cc1.Cl.Cl [Octenidine Dihydrochloride, Octenidine dihydrochloride]
Cytotoxicity data: demonstrate any adverse effect to wound healing [2]: Cytotoxicity data failed to
Efficacy: spectrum [3]: Broad spectrum
MIC [3]: MIC ≤1 μg/ml
LD50 on rat [4]: LD50 on rat = 10 mg/kg
preservative efficacy [5]: did not exhibit satisfactory preservative efficacy
log reduction ([6]; 0.001 mg/mL, 6 h): 3.8 log
viable count ([6]; 0.001 mg/mL, 6 h): 1.6 × 10^2
log reduction ([6]; 0.001 mg/mL, 24 h): >5 log
viable count ([6]; 0.001 mg/mL, 24 h): <10
log reduction ([6]; 0.001 mg/mL, 7 d): 3.7 log
viable count ([6]; 0.001 mg/mL, 7 d): 2 × 10^2
log reduction ([6]; 0.001 mg/mL, 14 d): 3.9 log
viable count ([6]; 0.001 mg/mL, 14 d): 1.4 × 10^2
log reduction ([6]; 0.001 mg/mL, 28 d): 4.4 log
viable count ([6]; 0.001 mg/mL, 28 d): 40
viable count ([6]; 0.001 mg/mL, T0): 1.6 × 10^5
log reduction ([6]; 0.01 mg/mL, 6 h): >5 log
viable count ([6]; 0.01 mg/mL, 6 h): <10
log reduction ([6]; 0.01 mg/mL, 24 h): >5 log
viable count ([6]; 0.01 mg/mL, 24 h): <10
log reduction ([6]; 0.01 mg/mL, 7 d): >5 log
viable count ([6]; 0.01 mg/mL, 7 d): <10
log reduction ([6]; 0.01 mg/mL, 14 d): >5 log
viable count ([6]; 0.01 mg/mL, 14 d): <10
log reduction ([6]; 0.01 mg/mL, 28 d): >5 log
viable count ([6]; 0.01 mg/mL, 28 d): <10
viable count ([6]; 0.01 mg/mL, T0): 10
log reduction ([6]; 0.1 mg/mL, 6 h): >5 log
viable count ([6]; 0.1 mg/mL, 6 h): <10^2
log reduction ([6]; 0.1 mg/mL, 24 h): >5 log
viable count ([6]; 0.1 mg/mL, 24 h): <10^2
log reduction ([6]; 0.1 mg/mL, 7 d): >5 log
viable count ([6]; 0.1 mg/mL, 7 d): <10^2
log reduction ([6]; 0.1 mg/mL, 14 d): >5 log
viable count ([6]; 0.1 mg/mL, 14 d): <10^2
log reduction ([6]; 0.1 mg/mL, 28 d): >5 log
viable count ([6]; 0.1 mg/mL, 28 d): <10^2
viable count ([6]; 0.1 mg/mL, T0): <10
log reduction ([6]; 1 mg/mL, 6 h): >4 log
viable count ([6]; 1 mg/mL, 6 h): <10^2
log reduction ([6]; 1 mg/mL, 24 h): >4 log
viable count ([6]; 1 mg/mL, 24 h): <10^2
log reduction ([6]; 1 mg/mL, 7 d): >4 log
viable count ([6]; 1 mg/mL, 7 d): <10^2
log reduction ([6]; 1 mg/mL, 14 d): >4 log
viable count ([6]; 1 mg/mL, 14 d): <10^2
log reduction ([6]; 1 mg/mL, 28 d): >4 log
viable count ([6]; 1 mg/mL, 28 d): <10^2
viable count ([6]; 1 mg/mL, T0): <10^2
log reduction ([7]; 0.001 mg/mL, 7 d): 0 log
viable count ([7]; 0.001 mg/mL, 7 d): 1.7 × 10^5
log reduction ([7]; 0.001 mg/mL, 14 d): 0.1 log
viable count ([7]; 0.001 mg/mL, 14 d): 1.4 × 10^5
log reduction ([7]; 0.001 mg/mL, 28 d): 0.3 log
viable count ([7]; 0.001 mg/mL, 28 d): 1.0 × 10^5
viable count ([7]; 0.001 mg/mL, T0): 2.4 × 10^5
log reduction ([7]; 0.01 mg/mL, 7 d): 0.7 log
viable count ([7]; 0.01 mg/mL, 7 d): 3.8 × 10^4
log reduction ([7]; 0.01 mg/mL, 14 d): 0.8 log
viable count ([7]; 0.01 mg/mL, 14 d): 3.2 × 10^4
log reduction ([7]; 0.01 mg/mL, 28 d): 0.8 log
viable count ([7]; 0.01 mg/mL, T0): 2.8 × 10^5
log reduction ([7]; 0.1 mg/mL, 7 d): 0.4 log
viable count ([7]; 0.1 mg/mL, 7 d): 7.5 × 10^4
log reduction ([7]; 0.1 mg/mL, 14 d): 1.3 log
viable count ([7]; 0.1 mg/mL, 14 d): 1.0 × 10^4
log reduction ([7]; 0.1 mg/mL, 28 d): 0.8 log
viable count ([7]; 0.1 mg/mL, 28 d): 2.8 × 10^4
viable count ([7]; 0.1 mg/mL, T0): 1.7 × 10^5
log reduction ([7]; 1 mg/mL, 7 d): 0.8 log
viable count ([7]; 1 mg/mL, 7 d): 2.9 × 10^4
log reduction ([7]; 1 mg/mL, 14 d): 1 log
viable count ([7]; 1 mg/mL, 14 d): 1.7 × 10^4
log reduction ([7]; 1 mg/mL, 28 d): 1.1 log
viable count ([7]; 1 mg/mL, 28 d): 1.4 × 10^4
viable count ([7]; 1 mg/mL, T0): 1.6 × 10^5
log reduction ([8]; 0.001 mg/mL, 7 d): 4 log
viable count ([8]; 0.001 mg/mL, 7 d): 20
log reduction ([8]; 0.001 mg/mL, 14 d): 4.3 log
viable count ([8]; 0.001 mg/mL, 14 d): 10
log reduction ([8]; 0.001 mg/mL, 28 d): >4.3 log
viable count ([8]; 0.001 mg/mL, 28 d): <10
viable count ([8]; 0.001 mg/mL, T0): 1.7 × 10^5
log reduction ([8]; 0.01 mg/mL, 7 d): >4.3 log
viable count ([8]; 0.01 mg/mL, 7 d): <10
log reduction ([8]; 0.01 mg/mL, 14 d): >4.3 log
viable count ([8]; 0.01 mg/mL, 14 d): <10
log reduction ([8]; 0.01 mg/mL, 28 d): >4.3 log
viable count ([8]; 0.01 mg/mL, 28 d): <10
viable count ([8]; 0.01 mg/mL, T0): 2 × 10^3
log reduction ([8]; 0.1 mg/mL, 7 d): >4.3 log
viable count ([8]; 0.1 mg/mL, 7 d): <10
log reduction ([8]; 0.1 mg/mL, 14 d): >4.3 log
viable count ([8]; 0.1 mg/mL, 14 d): <10
log reduction ([8]; 0.1 mg/mL, 28 d): >4.3 log
viable count ([8]; 0.1 mg/mL, 28 d): <10
viable count ([8]; 0.1 mg/mL, T0): <10
log reduction ([8]; 1 mg/mL, 7 d): >4.3 log
viable count ([8]; 1 mg/mL, 7 d): <10
log reduction ([8]; 1 mg/mL, 14 d): >4.3 log
viable count ([8]; 1 mg/mL, 14 d): <10
log reduction ([8]; 1 mg/mL, 28 d): >4.3 log
viable count ([8]; 1 mg/mL, 28 d): <10
viable count ([8]; 1 mg/mL, T0): <10
log reduction ([9]; 0.001 mg/mL, 6 h): 3 log
viable count ([9]; 0.001 mg/mL, 6 h): 1.0 × 10^3
log reduction ([9]; 0.001 mg/mL, 24 h): 3 log
viable count ([9]; 0.001 mg/mL, 24 h): 1.0 × 10^4
log reduction ([9]; 0.001 mg/mL, 7 d): 0 log
viable count ([9]; 0.001 mg/mL, 7 d): >3.3 × 10^6
log reduction ([9]; 0.001 mg/mL, 14 d): 0 log
viable count ([9]; 0.001 mg/mL, 14 d): >3.3 × 10^6
log reduction ([9]; 0.001 mg/mL, 28 d): 0 log
viable count ([9]; 0.001 mg/mL, 28 d): >3.3 × 10^6
viable count ([9]; 0.001 mg/mL, T0): 7.5 × 10^4
log reduction ([9]; 0.01 mg/mL, 6 h): >5.1 log
viable count ([9]; 0.01 mg/mL, 6 h): <10
log reduction ([9]; 0.01 mg/mL, 24 h): >5.1 log
viable count ([9]; 0.01 mg/mL, 24 h): <10
log reduction ([9]; 0.01 mg/mL, 7 d): 4.4 log
viable count ([9]; 0.01 mg/mL, 7 d): <10
log reduction ([9]; 0.01 mg/mL, 14 d): 4.4 log
viable count ([9]; 0.01 mg/mL, 14 d): <10
log reduction ([9]; 0.01 mg/mL, 28 d): 4.4 log
viable count ([9]; 0.01 mg/mL, 28 d): <10
viable count ([9]; 0.01 mg/mL, T0): <10
log reduction ([9]; 0.1 mg/mL, 6 h): >5.1 log
viable count ([9]; 0.1 mg/mL, 6 h): <10
log reduction ([9]; 0.1 mg/mL, 24 h): >5.1 log
viable count ([9]; 0.1 mg/mL, 24 h): <10
log reduction ([9]; 0.1 mg/mL, 7 d): 4.4 log
viable count ([9]; 0.1 mg/mL, 7 d): 50
log reduction ([9]; 0.1 mg/mL, 14 d): >5.1 log
viable count ([9]; 0.1 mg/mL, 14 d): <10
log reduction ([9]; 0.1 mg/mL, 28 d): >5.1 log
viable count ([9]; 0.1 mg/mL, 28 d): <10
viable count ([9]; 0.1 mg/mL, T0): <10
log reduction ([9]; 1 mg/mL, 6 h): >5.1 log
viable count ([9]; 1 mg/mL, 6 h): <10
log reduction ([9]; 1 mg/mL, 24 h): >5.1 log
viable count ([9]; 1 mg/mL, 24 h): <10
log reduction ([9]; 1 mg/mL, 7 d): >5.1 log
viable count ([9]; 1 mg/mL, 7 d): <10
log reduction ([9]; 1 mg/mL, 14 d): >5.1 log
viable count ([9]; 1 mg/mL, 14 d): <10
log reduction ([9]; 1 mg/mL, 28 d): >5.1 log
viable count ([9]; 1 mg/mL, 28 d): <10
viable count ([9]; 1 mg/mL, T0): <10
solubility ([10]; routinely used phosphate buffered saline (PBS)): less soluble
solubility ([10]; sodium phosphate replaced with sodium bicarbonate): provided the required solubility

C[CH2][Hg][S]c1ccccc1C(=O)[O-].[Na+] [thimerosal]
Minimum Inhibitory Concentration (MIC) [11]: 4 to 8 µg/mL
Minimum Inhibitory Concentration (MIC) [12]: 128 µg/mL
Minimum Inhibitory Concentration (MIC) [13]: 32 µg/mL
Minimum Inhibitory Concentration (MIC) [14]: 0.2 µg/mL
Minimum Inhibitory Concentration (MIC) [15]: 4 to 8 µg/mL
